Source: patent US20180044350A1, “THERAPEUTIC CYCLIC COMPOUNDS AS IMMUNOMODULATORS” (priority 2015, published 2018)

Each molecule was assayed against T1, Recombinant mouse PD-L1 (Mus musculus, UniProt Q9EP73) (assay: Rescue of mouse splenocyte proliferation in the presence of recombinant PD-L1 (CFSE proliferation assay)). Details: 100 nM compound; anti-CD3/CD28 stimulated CFSE-labelled mouse splenocytes + PD-L1, 72 h; normalised to stimulated splenocyte proliferation as 100%; read-out: Percent rescue of proliferation (@100 nM compound concentration).
T1 construct: Fc (Fc chimera); purchased R&D Systems 1019-B7-100
T1 sequence (Q9EP73 with tags, fused parts or gaps limits assumed): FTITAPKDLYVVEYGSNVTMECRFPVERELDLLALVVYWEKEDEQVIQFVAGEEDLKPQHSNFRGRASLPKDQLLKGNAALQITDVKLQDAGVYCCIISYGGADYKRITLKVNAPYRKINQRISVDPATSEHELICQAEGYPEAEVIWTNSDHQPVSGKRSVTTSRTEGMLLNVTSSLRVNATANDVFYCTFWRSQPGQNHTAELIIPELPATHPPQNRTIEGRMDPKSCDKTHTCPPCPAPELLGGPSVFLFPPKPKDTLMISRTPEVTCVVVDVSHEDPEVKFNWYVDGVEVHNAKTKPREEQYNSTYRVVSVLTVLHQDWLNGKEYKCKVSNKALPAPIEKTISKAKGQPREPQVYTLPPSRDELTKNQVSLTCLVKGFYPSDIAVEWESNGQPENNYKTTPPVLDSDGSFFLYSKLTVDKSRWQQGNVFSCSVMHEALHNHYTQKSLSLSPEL
Type: cell-based
Description: Rescue of Mouse Splenocyte Proliferation in the Presence of Recombinant PD-L1
Recombinant mouse PD-L1 (rm-PDL-1, cat no: 1019-B7-100; R&D Systems) were used as the source of PD-L1.
Mouse splenocytes harvested from 6-8 weeks old C57 BL6 mice; RPMI 1640 (GIBCO, Cat #11875); DMEM with high glucose (GIBCO, Cat #D6429); Fetal Bovine Serum └Hyclone, Cat #SH30071.03┘; Penicillin (10000 unit/mL)-Streptomycin(10,000 μg/mL) Liquid (GIBCO, Cat #15140-122); MEM Sodium Pyruvate solution 100 mM (100×), Liquid (GIBCO, Cat #11360); Nonessential amino acid (GIBCO, Cat #11140); L-Glutamine (GIBCO, Cat #25030); Anti-CD3 antibody (eBiosciences—16-0032); Anti-CD28 antibody (eBiosciences—16-0281); ACK lysis buffer (1 mL) (GIBCO, Cat #-A10492); Histopaque (density-1.083 gm/mL) (SIGMA 10831); Trypan blue solution (SIGMA-T8154); 2 mL Norm Ject Luer Lock syringe-(Sigma 2014-12); 40 μm nylon cell strainer (BD FALCON 35230); Hemacytometer (Bright line-SIGMA Z359629); FACS Buffer (PBS/0.1% BSA): Phosphate Buffered Saline (PBS) pH 7.2 (HiMedia TS1006) with 0.1% Bovine Serum Albumin (BSA) (SIGMA A7050) and sodium azide (SIGMA 08591); 5 mM stock solution of CFSE: CFSE stock solution was prepared by diluting lyophilized CFSE with 180 μL of Dimethyl sulfoxide (DMSO C2H6SO, SIGMA-D-5879) and aliquoted in to tubes for further use. Working concentrations were titrated from 10 μM to 1 μM. (eBioscience-650850-85); 0.05% Trypsin and 0.02% EDTA (SIGMA 59417C); 96-well format ELISA plates (Corning CLS3390); BD FACS caliber (E6016); Recombinant mouse B7-H1/PDL1 Fc Chimera, (rm-PD-L1 cat no: 1019-B7-100).
Splenocytes harvested in a 50 mL falcon tube by mashing mouse spleen in a 40 μm cell strainer were further treated with 1 mL ACK lysis buffer for 5 min at room temperature. After washing with 9 mL of RPMI complete media, cells were re-suspended in 3 mL of 1×PBS in a 15 mL tube. 3 mL of Histopaque was added carefully to the bottom of the tube without disturbing overlaying splenocyte suspension. After centrifuging at 800×g for 20 min at room temperature, the opaque layer of splenocytes was collected carefully without disturbing/mixing the layers. Splenocytes were washed twice with cold 1×PBS followed by total cell counting using Trypan Blue exclusion method and used further for cell based assays.
Splenocytes were cultured in RPMI complete media (RPMI+10% fetal bovine serum+1 mM sodium pyruvate+10,000 units/mL penicillin and 10,000 μg/mL streptomycin) and maintained in a CO2 incubator with 5% CO2 at 37° C.
CFSE is a dye that passively diffuses into cells and binds to intracellular proteins. 1×10^6 cells/mL of harvested splenocytes were treated with 5 μM of CFSE in pre-warmed 1×PBS/0.1% BSA solution for 10 min at 37° C. Excess CFSE was quenched using 5 volumes of ice-cold culture media to the cells and incubated on ice for 5 min CFSE labelled splenocytes were further given three washes with ice cold complete RPMI media. CFSE labelled 1×10^5 splenocytes added to wells containing either MDA-MB231 cells (1×10^5 cells cultured in high glucose DMEM medium) or recombinant human PDL-1 (100 ng/mL) and test compounds. Splenocytes were stimulated with anti-mouse CD3 and anti-mouse CD28 antibody (1 μg/mL each) and the culture was further incubated for 72 h at 37° C. with 5% CO2. Cells were harvested and washed thrice with ice cold FACS buffer and % proliferation was analysed by flow cytometry with 488 nm excitation and 521 nm emission filters.
Percent splenocyte proliferation was analysed using cell quest FACS program and percent rescue of splenocyte proliferation by compound was estimated after deduction of % background proliferation value and normalising to % stimulated splenocyte proliferation (positive control) as 100%.
Stimulated splenocytes: Splenocytes+anti-CD3/CD28 stimulation.
Background proliferation: Splenocytes+anti-CD3/CD28+PD-L1.
Compound proliferation: Splenocytes+anti-CD3/CD28+PD-L1+Compound. […]

Question: Which activation at 0.1 µM does the source give for `O=C1COCCOCCNC(=O)[C@H](Cc2ccc(O)cc2)NC(=O)N2CCCC2C(=O)NNC(=O)[C@H](Cc2ccc(O)cc2)N1` (some centres unmarked) [Compound 1] here?
Answer: 76%

Question: How did the activation at 0.1 µM turn out when `CC(O)[C@@H]1NC(=O)N[C@@H](CC(N)=O)C(=O)NNC(=O)[C@H](CCCCN)NC(=O)COCCOCCNC1=O` (some centres unmarked) [Compound 2] was run?
Answer: 57%

Question: Which activation at 0.1 µM does the source give for `CC(O)[C@@H]1NC(=O)N[C@@H](Cc2ccccc2)C(=O)NNC(=O)[C@H](CO)NC(=O)COCCOCCNC1=O` (some centres unmarked) [Compound 3] here?
Answer: 66%

Question: How did the activation at 0.1 µM turn out when `NCCCC[C@@H]1NC(=O)COCCOCCNC(=O)[C@H](CCCCN)NC(=O)N[C@@H](CCCCN)C(=O)NNC1=O` [Compound 5] was run?
Answer: 24%

Question: How did the activation at 0.1 µM turn out when `CC(O)[C@@H]1NC(=O)N[C@@H](CCCCN)C(=O)NNC(=O)[C@H](CO)NC(=O)COCCOCCNC1=O` (some centres unmarked) [Compound 6] was run?
Answer: 40%

Question: Which activation at 0.1 µM does the source give for `CCC(C)[C@@H]1NC(=O)N[C@@H](C(C)O)C(=O)NCCOCCOCC(=O)N[C@@H](CO)C(=O)NNC1=O` (some centres unmarked) [Compound 7] here?
Answer: 23%

Question: For `CC(O)[C@@H]1NC(=O)N[C@@H](CC(N)=O)C(=O)NNC(=O)[C@H](CC(=O)O)NC(=O)COCCOCCNC1=O` (some centres unmarked) [Compound 9], which activation at 0.1 µM is on record?
Answer: 46%

Question: `O=C(O)C[C@@H]1NC(=O)COCCOCCNC(=O)[C@H](CC(=O)O)NC(=O)N[C@@H](CC(=O)O)C(=O)NNC1=O` [Compound 10] was tested. Which activation at 0.1 µM did it give?
Answer: 53%

Question: For `O=C1COCCOCCNC(=O)[C@H](CO)NC(=O)N[C@@H](CO)C(=O)NNC(=O)[C@H](CO)N1` [Compound 11], which activation at 0.1 µM is on record?
Answer: 17%

Question: How did the activation at 0.1 µM turn out when `CC(O)[C@@H]1NC(=O)COCCOCCNC(=O)[C@H](C(C)O)NC(=O)N[C@@H](C(C)O)C(=O)NNC1=O` (some centres unmarked) [Compound 12] was run?
Answer: 91%

Question: For `CC(C)C[C@@H]1NC(=O)N[C@@H](CC(N)=O)C(=O)NNC(=O)[C@H](CO)NC(=O)COCCOCCNC1=O` [Compound 13], which activation at 0.1 µM is on record?
Answer: 53%

Question: `CCC(C)[C@@H]1NC(=O)N[C@@H](CCC(=O)O)C(=O)NCCOCCOCC(=O)N[C@@H](CCC(N)=O)C(=O)NNC1=O` (some centres unmarked) [Compound 15] was tested. Which activation at 0.1 µM did it give?
Answer: 40%

Question: Which activation at 0.1 µM does the source give for `CC(O)[C@@H]1NC(=O)N[C@@H](Cc2ccccc2)C(=O)NNC(=O)[C@H](CCCCN)NC(=O)COCCOCCNC1=O` (some centres unmarked) [Compound 16] here?
Answer: 30%

Question: For `CCC(C)[C@@H]1NC(=O)N[C@@H](CCC(N)=O)C(=O)NCCOCCOCC(=O)N[C@@H](CCC(=O)O)C(=O)NNC1=O` (some centres unmarked) [Compound 17], which activation at 0.1 µM is on record?
Answer: 38%
